The record followed here is PubChem BioAssay AID179 (DTP/NCI, 2004).

The test system of the experiment is CEM cells HIV-1 protection, formazan growth assay. Put plainly: NCI AIDS Antiviral Assay. The following applies: for IC50: measured here: growth of uninfected CEM cells. Summed up:
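Soluble formazan readout of cell growth; CEM cells ± HIV-1; 5 drug concs. ≥50% protection → retest; ≥50% again = moderately active; reproducible 100% = confirmed active.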

SMILES strings stand for the structures. “And” between values parts separate entries of the source, which are not always exact repeats. Equal values may be shown once. The source made the active and inactive calls.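 Rule for the calls: active = compounds giving half or more protection of infected cells from virus-caused growth loss, again on retest; inactive = the rest.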

As usually defined, the EC50 is the concentration that produces a half-maximal response. As a reminder, the IC50 is the concentration at which inhibition is half-maximal. A low value points to greater potency.

As for `COC(=O)C1C(C(=O)OC)N(Cc2ccccc2)C(=O)N1Cc1ccccc1` (centres undefined), the EC50 is above 200 µM and the half-maximal inhibitory concentration (IC50) was found to be 120 µM.

On to `O=C(O)CCCO`, for which the EC50 was above 200 µM and the half-inhibitory concentration (IC50) is above 200 µM.

As for `CSc1c(C#N)c(S)[nH]c(=O)c1C#N`, the EC50 is 83.2 µM and the IC50 was 126 µM.

For the compound `CN(C)C(=S)SSC(=S)SSC(=S)N(C)C`, the EC50 is above 2 µM and the concentration for half-maximal inhibition (IC50) turned out to be 0.646 µM.

As to `CCCCCCCC(=O)OC(CBr)COC(=O)C(C)(C)C` (centres undefined), the EC50 was above 251 µM and the concentration for half-maximal inhibition (IC50) was 191 µM.

Turning to `O=C([CH-]C(=O)c1ccccc1)c1ccccc1.[CH-]1CCCCC1.[CH-]1CCCCC1.[CH-]1CCCCC1.[Sn+4]`, the EC50 was above 60.3 µM.

Take `Nc1cc(F)ccc1CC(=O)O`: the EC50 is above 200 µM and the IC50 is above 200 µM.

`C1=Cc2nc1c(-c1ccccc1)c1ccc([n-]1)c(-c1ccccc1)c1nc(c(-c3ccncc3)c3ccc([n-]3)c2-c2ccccc2)C=C1.C1=Cc2nc1c(-c1ccccc1)c1ccc([n-]1)c(-c1ccccc1)c1nc(c(-c3ccncc3)c3ccc([n-]3)c2-c2ccccc2)C=C1.C1=Cc2nc1c(-c1ccccc1)c1ccc([n-]1)c(-c1ccccc1)c1nc(c(-c3ccncc3)c3ccc([n-]3)c2-c2ccccc2)C=C1.C1=Cc2nc1c(-c1ccccc1)c1ccc([n-]1)c(-c1ccccc1)c1nc(c(-c3ccncc3)c3ccc([n-]3)c2-c2ccccc2)C=C1.O=S(=O)([O-])C(F)(F)F.[Pt+2].[Zn+2].[Zn+2].[Zn+2].[Zn+2]`: the EC50 was above 25.1 µM and the IC50 was above 25.1 µM.

With `N/C(=N\C(O)C(Cl)(Cl)Cl)SCNC(=O)NCS/C(N)=N/C(O)C(Cl)(Cl)Cl` (centres undefined), the EC50 is above 158 µM and the IC50 came to 126 µM.

Take `CCOC(=O)C1S(=O)(=O)OCCOS1(=O)=O`: the EC50 was above 5750 µM and the IC50 stood at 3470 µM.

As for `C1CN(SSN2CCOCC2)CCO1`, the EC50 is above 200 µM and the half-maximal inhibitory concentration (IC50) amounted to 126 µM.

Take `CO[C@@H]1C[C@H]2[C@@H]3CC[C@H]([C@@H](C)CO)[C@@]3(C)CC[C@@H]2[C@@]2(C)CC[C@H]3C[C@]312`: the EC50 is above 200 µM and the IC50 was 102 µM.

Turning to `CC(=O)c1ccc2c(c1)CC1(C2)Cc2cc3c(cc2C1)C(=O)CC3` (centres undefined), the EC50 is above 200 µM and the IC50 is 0.234 µM.

Consider `OC1(C23CC4CC(CC(C4)C2)C3)CSCC1(O)C12CC3CC(CC(C3)C1)C2` (centres undefined), for which the EC50 is above 7.08 µM and the IC50 was above 7.08 µM.

Turning to `CCCNC(=O)Nc1c([N+](=O)[O-])cc(C(F)(F)F)cc1[N+](=O)[O-]`, the outcome was inactive.

As to `CC(CCC(C)C(=O)O)C(=O)O` (centres undefined), the EC50 is above 1450 µM and the IC50 is above 1450 µM.

Regarding `COC(=O)c1c(-c2ccccc2)c2sc3ccccc3n2c1N`, the EC50 is above 200 µM and the IC50 is above 200 µM.

On to `CC(=O)Nc1ccc(S(=O)(=O)n2oc(=O)c(-c3ccccc3)c2N)cc1`, for which the EC50 is above 200 µM and the half-maximal inhibitory concentration (IC50) was 105 µM.

On to `COc1cc2c(c3[nH]cc(C(=O)O)c(=O)c13)NC(=O)CS2`, for which the EC50 was above 200 µM and the concentration for half-maximal inhibition (IC50) was above 200 µM.

As for `COc1ccc2c3c([nH]c2c1)CCN(Cc1ccccc1)C3`, the EC50 was above 200 µM and the half-inhibitory concentration (IC50) worked out at 45.7 µM.

Turning to `CCOC(=O)C(=O)C(=O)NN(C)C1=NCCN1`, the EC50 was above 200 µM and the IC50 was above 200 µM.

Consider `CNC(=O)c1n[nH]n(C2CCCCC2)c1=S`, for which the outcome was inactive.

Turning to `c1ccc2c(c1)Nc1nc3nonc3nc1N2`, the EC50 was above 200 µM and the IC50 was above 200 µM.

In the case of `Cn1cc(NC(=O)Nc2cc(C(=O)Nc3cc(C(=O)Nc4cc(C(=O)Nc5ccc6cc(S(=O)(=O)O)cc(S(=O)(=O)O)c6c5)n(C)c4)n(C)c3)n(C)c2)cc1C(=O)Nc1cc(C(=O)Nc2cc(C(=O)Nc3ccc4cc(S(=O)(=O)O)cc(S(=O)(=O)O)c4c3)n(C)c2)n(C)c1`, the concentration for a half-maximal effect (EC50) is 0.977 µM and the IC50 came out at 117 µM.

Regarding `CNC(=O)CN(CC(N)=O)C(=O)NC`, the EC50 is above 891 µM and the 50% inhibitory concentration (IC50) was above 891 µM.

On to `Nc1ccc(C(=O)N/C(=C\c2cccc([N+](=O)[O-])c2)c2nc3ccccc3[nH]2)cc1`, for which the result was inactive.

Take `CC1(C)C(=O)c2cc3ccccc3nc2-c2ccccc21`: the EC50 was above 200 µM and the IC50 was 24.5 µM.

Consider `O=C(O)c1ccc(C2COc3ccc(Cl)cc3C2)cc1` (centres undefined), for which the EC50 is above 174 µM and the IC50 amounted to 105 µM.

Turning to `COc1ccc2[nH]c(Br)c(CCNC(C)=O)c2c1`, the EC50 is above 200 µM and the IC50 was above 200 µM.

For `CCN(CC)c1ccc(N=C2C=C(Cl)C(=O)c3ncccc32)c(C)c1`, the result was inactive.

As for `COP(=O)(OC)C(N)CCSC` (centres undefined), the EC50 was above 200 µM and the concentration for half-maximal inhibition (IC50) was above 200 µM.

`CCCCCCCC(=O)c1ccc(O)c(C(=O)Nc2cccc(C(F)(F)F)c2)c1`: the EC50 was above 12.9 µM and the 50% inhibitory concentration (IC50) was determined as 0.145 µM.

Consider `CC(C)OC(=S)SSSC(=S)OC(C)C`, for which the EC50 was above 200 µM and the IC50 was found to be 19.1 µM.

For the compound `O=C(COc1ccc(Cl)cc1)c1ccccc1`, the EC50 is above 1000 µM and the half-maximal inhibitory concentration (IC50) is above 1000 µM.

For `CC(=O)NC(CCCN(Cc1ccccc1)C(=O)N(CCCl)N=O)C(=O)NCc1ccccc1` (centres undefined), the EC50 was above 74.1 µM and the IC50 came out at 45.7 µM.

Turning to `CCOC(=O)c1ccc(N2C(=O)/C(=C/c3ccc(N(CCC#N)CCC#N)cc3)N=C2c2cc([N+](=O)[O-])ccc2Cl)cc1`, the EC50 was above 12 µM and the half-inhibitory concentration (IC50) is above 12 µM.

For `CC(c1ccccc1)N1O[C@]12CC[C@@]1(C)C(CCCC13OCCO3)C2` (some centres undefined), the outcome was inactive.

In the case of `CC(=O)NS(=O)(=O)c1ccc(NC(=O)c2ccccc2SC(C)=O)cc1`, the EC50 is 17 µM and the concentration for half-maximal inhibition (IC50) came to 112 µM.

On to `CCCCCC(=O)Nc1n[nH]nc1C(N)=O`, for which the EC50 is above 200 µM and the IC50 is above 200 µM.

As to `CCOC(=O)/C(=C\c1ccc(CO)o1)P(=O)(OCC)OCC`, the EC50 is above 200 µM and the IC50 is 30.9 µM.

For `CC1=NNC(=O)C1C1CC(c2c[nH]c3ccccc23)=NNC1=NCc1ccccc1` (centres undefined), the EC50 is 4.68 µM and the IC50 is 50.1 µM.

For the compound `O=C1O/C(=C2\OCc3ccccc32)c2ccccc21`, the EC50 was above 151 µM and the IC50 was above 151 µM.

As to `CSC1=C(SC)C(=O)c2cn(C)c(=O)cc2C1=O`, the EC50 was above 200 µM and the IC50 is 0.977 µM.

`NC(=S)NN=C(C1CC1)C1CC1`: the EC50 is above 200 µM and the IC50 is above 200 µM.

On to `CN(CCO)CC(O)Cn1cnc2c1c(=O)n(C)c(=O)n2C` (centres undefined) (tested in a mixture with another compound), for which the EC50 was above 200 µM and the half-maximal inhibitory concentration (IC50) is above 200 µM.

`COC1=NC2=CC(=O)c3c(c(OC(C)=O)c(C)c4c3C(=O)C(C)(O/C=C/C(OC)C(C)C(OC(C)=O)C(C)C(O)C(C)C(OC(C)=O)C(C)/C=C/C=C\1C)O4)C2=O` (centres undefined): the EC50 is above 200 µM and the concentration for half-maximal inhibition (IC50) was determined as 16.6 µM.

Regarding `CCCCC(=O)[O-].N.N.N.N.N.[Co+3].[O-][Cl+3]([O-])([O-])[O-]`, the result was inactive.

Consider `S=c1[nH]c2ccccc2[nH]c1=S`, for which the EC50 was above 200 µM and the IC50 came out at 26.3 µM.

On to `COc1cccc(/C=C\C#N)c1`, for which the EC50 was above 316 µM and the IC50 was above 316 µM.

Turning to `O=C1C=CC(=O)c2c(O)ccc(O)c21`, the EC50 was above 200 µM and the IC50 was found to be 3.89 µM.

Regarding `CC(=O)OCC1OC(SC2=N/C(=C\c3ccc(Br)s3)C(=O)N2c2ccccc2)C(OC(C)=O)C(OC(C)=O)C1OC(C)=O` (centres undefined), the EC50 is above 200 µM; the IC50 was 123 µM and 33.9 µM.

Consider `CCCCN(O)[C@@H]1CC(n2cc(C)c(=O)[nH]c2=O)OC1CO[Si](C)(C)C(C)(C)C` (some centres undefined), for which the EC50 was above 200 µM and the IC50 worked out at 83.2 µM.

`CCN(c1cccc(NC(=S)Nc2ccccc2N(CC)c2cc(-c3ccccc3)no2)c1)c1cc(-c2ccccc2)no1`: the EC50 was above 200 µM and the half-inhibitory concentration (IC50) is above 200 µM.

On to `N#C/C(=C/c1ccc(Cl)cc1)c1ccc(Cl)cc1`, for which the EC50 was above 200 µM and the IC50 stood at 195 µM.

`COc1cc2c(cc1OC)NC(C)=CC(C)=N2`: the EC50 was above 200 µM and the concentration for half-maximal inhibition (IC50) is above 200 µM.

Regarding `COc1ccc(/C=C/C(=O)c2ccc(OC(=O)/C=C/c3ccccc3)cc2)cc1`, the EC50 was above 200 µM and the concentration for half-maximal inhibition (IC50) came to 9.12 µM.

Turning to `CCC[C@@H]1C(=O)N=C(N)N1C(=O)OCc1ccccc1`, the EC50 is above 200 µM and the IC50 is above 200 µM.

Turning to `CCOC(=O)NC(OCc1ccccc1)(C(=O)OC)C(F)(F)F` (centres undefined), the EC50 was above 200 µM and the half-inhibitory concentration (IC50) is above 200 µM.

As for `CC1(C)C[C@@H]2C1CCC1(C)CC2(O)CC[C@H]1O` (some centres undefined), the EC50 was above 200 µM and the IC50 was above 200 µM.

Turning to `CC(=O)O[C@]12CCCCCC1C1(O)C(O)CCCCC12` (some centres undefined), the EC50 was above 200 µM and the half-maximal inhibitory concentration (IC50) is above 200 µM.

Regarding `O=C1Nc2cc3c(cc2C(=O)N2C/C(=N/O)CC12)OCO3` (centres undefined), the EC50 is above 324 µM and the half-inhibitory concentration (IC50) was 191 µM.

In the case of `O=C1CSC(=S)N1c1ccccc1`, the EC50 is above 240 µM and the 50% inhibitory concentration (IC50) is 178 µM.

`Cc1cn2c(=O)c3ccccc3nc2s1`: the EC50 was above 4.79 µM and the IC50 was above 4.79 µM.

Take `OC1C(O)C2CC1C1C2C2(Cl)C(Cl)=C(Cl)C1(Cl)C2(Cl)Cl` (centres undefined): the EC50 was above 200 µM and the IC50 amounted to 12.6 µM.

With `CCOc1ccccc1NC(=O)C(=O)C(c1ccccc1)S(=O)(=O)Cc1ccccc1` (centres undefined), the EC50 was above 200 µM and the half-maximal inhibitory concentration (IC50) came to 120 µM.

Consider `O=S(=O)(c1ccccc1)C1CN2OC1(S(=O)(=O)c1ccccc1)CC21CCCCC1` (centres undefined), for which the outcome was inactive.

In the case of `CC1=C(c2cc(C(=O)Nc3cccc(C(F)(F)F)c3)nc(NC#N)n2)Sc2ccccc2N1`, the result was inactive.

On to `O=C(NCCCN1CCN(CCCNC(=O)c2ccc(N=Nc3ccccc3)cc2)CC1)c1ccc(N=Nc2ccccc2)cc1`, for which the EC50 was above 100 µM and the 50% inhibitory concentration (IC50) was 53.7 µM.

As to `O=C(OC[C@H]1C[C@H]2C(=O)CCC[C@H]2O1)c1ccccc1`, the EC50 was above 200 µM and the IC50 is above 200 µM.
